This note sets out measurements from patent publication US7109197B2, “N-phenyl-4-(4-pyridyl)-2-pyrimidineamine derivatives” (Syngenta Crop Protection, Inc., priority 2000, dated 2006).

The structures appear in SMILES notation. Read-outs that look alike come from different tables or passages of the source.

One assay deals with Puccinia graminis. The format is in vivo.
Another assay concerns Phytophthora infestans. Type of assay: in vivo.
The mark [1] stands for this setting: Puccinia graminis on wheat cv. Arina, 0.02% active substance spray (residual) or 0.002% soil (systemic), variant not stated.

Consider `CCNc1cc(-c2ccnc(Nc3cccc(Cl)c3)n2)ccn1` [Compound 60], for which the B1 activity result with Puccinia graminis (in vivo) was “+ (key: +: the activity observed in the corresponding test system is 70% or more)”.
Consider `CCC(CO)Nc1cc(-c2ccnc(Nc3cccc(Cl)c3)n2)ccn1` (centres unmarked) [Compound 31], for which the B2 activity entry in the assay on Phytophthora infestans (Phytophthora infestans on tomato cv. Roter Gnom, 0.02% active substance spray (residual) or 0.002% soil (systemic), variant not stated) is on record as “+ (the activity observed in the corresponding test system is 70% or more)”. The B1 activity result in the assay with Puccinia graminis (setting [1]) was “+ (the activity observed in the corresponding test system is 70% or more)”.
For `OCCCNc1cc(-c2ccnc(Nc3cccc(Cl)c3)n2)ccn1` [Compound 46], in the assay on Puccinia graminis (setting [1]), the B1 activity result was “+ (the activity observed in the corresponding test system is 70% or more)”.
`Nc1cc(-c2ccnc(Nc3cccc(Cl)c3)n2)ccn1` [Compound 58]: the B1 activity entry in the assay with Puccinia graminis (in vivo) was “+ (key: +: the activity observed in the corresponding test system is 70% or more)”.
Take `Clc1cccc(Nc2nccc(-c3ccnc(NC4CCOC4)c3)n2)c1` (centres unmarked) [Compound 2]: the B1 activity result with Puccinia graminis (setting [1]) is given as “+ (the activity observed in the corresponding test system is 70% or more)”.
On to `CNc1cc(-c2ccnc(Nc3cccc(Cl)c3)n2)ccn1` [Compound 64], for which the B2 activity entry in the assay with Phytophthora infestans (in vivo) was “+ (key: +: the activity observed in the corresponding test system is 70% or more)”.
In the case of `Clc1cccc(Nc2nccc(-c3ccnc(NCC4CCCO4)c3)n2)c1` (centres unmarked) [Compound 75], in the assay with Puccinia graminis (setting [1]), the B1 activity result is reported as “+ (the activity observed in the corresponding test system is 70% or more)”.
Still for that read-out and setting: with `Clc1cccc(Nc2nccc(-c3ccnc(NCCCOc4ncccn4)c3)n2)c1` [Compound 94] the entry was “+ (the activity observed in the corresponding test system is 70% or more)”.
For the compound `CC(C)Nc1cc(-c2ccnc(Nc3cccc(Cl)c3)n2)ccn1` [Compound 68], in the assay on Puccinia graminis (in vivo), the B1 activity result is “+ (key: +: the activity observed in the corresponding test system is 70% or more)”.
`CC(CO)Nc1cc(-c2ccnc(Nc3cccc(Cl)c3)n2)ccn1` (centres unmarked) [Compound 39]: the B1 activity result in the assay on Puccinia graminis (setting [1]) is “+ (the activity observed in the corresponding test system is 70% or more)”.
